Values quoted from earlier work as cited in patent US20040067267A1, “Process for preparation of cholesterol lowering compositions from garlic” (priority 2002, published 2004).

What was measured:
[1] = biological target: T1, HMG CoA reductase (Homo sapiens, UniProt P04035); settings: for lowering of plasma LDL cholesterol levels: alone; for decrease of LDL levels: given along with bile acid binding resin (Bilheimer et al 1983)
T1 sequence (P04035 1-888): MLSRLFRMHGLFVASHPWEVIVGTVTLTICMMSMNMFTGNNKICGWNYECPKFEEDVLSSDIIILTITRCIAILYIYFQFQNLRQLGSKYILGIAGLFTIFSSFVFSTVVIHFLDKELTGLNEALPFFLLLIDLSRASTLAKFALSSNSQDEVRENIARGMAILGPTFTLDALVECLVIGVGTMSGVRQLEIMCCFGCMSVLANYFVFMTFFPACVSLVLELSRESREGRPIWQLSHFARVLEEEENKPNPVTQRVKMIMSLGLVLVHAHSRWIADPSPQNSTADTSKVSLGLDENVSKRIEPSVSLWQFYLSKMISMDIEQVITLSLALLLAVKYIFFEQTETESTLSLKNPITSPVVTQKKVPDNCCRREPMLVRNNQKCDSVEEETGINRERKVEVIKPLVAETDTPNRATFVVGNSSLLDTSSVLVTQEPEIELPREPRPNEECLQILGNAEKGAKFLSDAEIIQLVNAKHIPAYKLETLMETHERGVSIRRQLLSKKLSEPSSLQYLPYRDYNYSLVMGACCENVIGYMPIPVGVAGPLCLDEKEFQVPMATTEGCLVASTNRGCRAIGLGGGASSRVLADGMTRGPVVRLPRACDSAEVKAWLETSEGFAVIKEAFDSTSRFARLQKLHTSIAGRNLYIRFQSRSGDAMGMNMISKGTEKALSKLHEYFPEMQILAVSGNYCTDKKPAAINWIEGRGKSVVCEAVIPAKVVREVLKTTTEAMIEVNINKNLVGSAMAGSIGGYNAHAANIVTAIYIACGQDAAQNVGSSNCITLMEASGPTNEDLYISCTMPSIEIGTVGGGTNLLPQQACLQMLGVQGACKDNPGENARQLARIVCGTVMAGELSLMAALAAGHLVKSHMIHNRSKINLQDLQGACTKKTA

[2] = patients with primary hypercholesterolemia (Hoeg et al. 1984)
[3] = tested on: mice

Row | Molecule | lowering of plasma LDL cholesterol levels [1] [%] | decrease of LDL levels [1] [%] | reduction of LDL cholesterol [2] | oral LD 50, female [3] [mg/kg b.wt] | oral LD 50, male [3] [mg/kg b.wt]
1 | CC[C@H](C)C(=O)O[C@H]1CCC=C2C=C[C@H](C)[C@H](CC[C@@H]3C[C@@H](O)CC(=O)O3)[C@H]21 [Compaction] | 30 | 50 | – | – | –
2 | NC[C@@H]1O[C@H](O[C@H]2[C@@H](O)[C@H](O[C@@H]3[C@@H](O)[C@H](N)C[C@H](N)[C@H]3O[C@H]3O[C@H](CN)[C@@H](O)[C@H](O)[C@H]3N)O[C@@H]2CO)[C@H](N)[C@@H](O)[C@@H]1O [Neomycin] | – | – | 15-20% | – | –
3 | C=CCS[S+]([O-])CC=C (stereo not shown) [allicin] | – | – | – | 363 | 309
4 | C=CCSCC=C [diallyl sulfide] | – | – | – | 1805 | 2029
5 | C=CCSSCC=C [diallyldisulfide] | – | – | – | 130 | 145
6 | C=CCSC[C@H](N)C(=O)O [s-allyl-L-cysteine] | – | – | – | 9390 | 8890
7 | mevinolin | 30 | 50 | – | – | –
